From PubChem BioAssay (NCI) come the findings set out here.

Test systems include 786-0 renal; COLO 205 colon; HOP-92 NSCLC; HT29 colon; MOLT-4 leukemia; OVCAR-4 ovarian; RPMI-8226 leukemia; SF-295 CNS; SN12C renal.
Common to all, as to assay: NCI tumour cell line growth inhibition, 48 h

“And” between values parts separate entries of the source, which are not always exact repeats. Equal entries are not always repeated.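 Grown in 96-well plates, cells were treated for 48 hours with each compound at five concentrations. Insufficient inhibition: endpoint recorded as highest concentration tested. GI50 is the concentration that inhibits growth by half. TGI denotes the concentration required for complete inhibition of growth.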

Consider `CC(C)(C)C(=O)Nc1cccc2oc(-c3ccccc3)cc12`, for which the TGI in the experiment with 786-0 renal was greater than 100 µM; in the experiment on COLO 205 colon it was greater than 100 µM; with HOP-92 NSCLC, 96.4 µM; in the experiment with HT29 colon, greater than 100 µM; with MOLT-4 leukemia it was greater than 100 µM; in the experiment on OVCAR-4 ovarian, greater than 100 µM. Also, the TGI with RPMI-8226 leukemia, in the experiment on SF-295 CNS and with SN12C renal was greater than 100 µM in each case.
As to `COc1ccc(C2ON(c3ccccc3)CC=C2C)cc1` (configuration not stated), the TGI in the experiment on 786-0 renal, with COLO 205 colon, in the experiment on HT29 colon, in the experiment on MOLT-4 leukemia, with OVCAR-4 ovarian and with RPMI-8226 leukemia was greater than 100 µM throughout. The TGI in the experiment on SF-295 CNS and in the experiment with SN12C renal was greater than 100 µM in each case.
On to `O=C(OCCCl)C1OC(n2cc(F)c(=O)[nH]c2=O)CC1O` (configuration not stated), for which the TGI in the experiment with 786-0 renal, in the experiment on COLO 205 colon, in the experiment with HOP-92 NSCLC, in the experiment with HT29 colon, in the experiment on MOLT-4 leukemia and with OVCAR-4 ovarian was greater than 100 µM throughout. The TGI with RPMI-8226 leukemia, in the experiment on SF-295 CNS and in the experiment on SN12C renal was greater than 100 µM in each case.
In the case of `C[C@@H](NS(=O)(=O)c1ccc(NC(=O)c2ccccc2)cc1)C(=O)O`, the TGI in the experiment on 786-0 renal, with COLO 205 colon, in the experiment with HOP-92 NSCLC, in the experiment with HT29 colon, in the experiment with MOLT-4 leukemia and in the experiment with OVCAR-4 ovarian was greater than 100 µM in each case. The TGI in the experiment with RPMI-8226 leukemia, in the experiment with SF-295 CNS and in the experiment with SN12C renal was greater than 100 µM each time.
`CC(C)(C)c1cc(CCCCCCCC2(CCCCCCCc3cc(C(C)(C)C)cc(C(C)(C)C)c3)OC(COCCOCCCCCC#N)C(COCCOCCCCCC#N)O2)cc(C(C)(C)C)c1` (configuration not stated): the TGI in the experiment with 786-0 renal, with COLO 205 colon, in the experiment with HOP-92 NSCLC, with HT29 colon, in the experiment with OVCAR-4 ovarian and in the experiment with SF-295 CNS was greater than 100 µM each time. This compound displayed a TGI in the experiment on SN12C renal greater than 100 µM.
Turning to `Cc1ccc(NC(=O)CC/C(CC(=O)C(C)(C)C)=N\NC(=O)C[n+]2ccccc2)cc1C`, the TGI with 786-0 renal, in the experiment on COLO 205 colon, in the experiment on HOP-92 NSCLC, in the experiment with HT29 colon, with MOLT-4 leukemia and in the experiment with OVCAR-4 ovarian was greater than 100 µM throughout. In addition, the TGI with RPMI-8226 leukemia, in the experiment with SF-295 CNS and in the experiment on SN12C renal was greater than 100 µM throughout.
As for `CN(C)CCC(CCN(C)C)=NO`, the TGI in the experiment on 786-0 renal, with COLO 205 colon, in the experiment with HT29 colon, in the experiment on MOLT-4 leukemia, in the experiment on OVCAR-4 ovarian and in the experiment with RPMI-8226 leukemia was greater than 100 µM each time. Besides, the TGI in the experiment with SF-295 CNS and in the experiment with SN12C renal was greater than 100 µM throughout.
For `C=CC(=O)NC(N)=NC#N`, the TGI is 300 µM with 786-0 renal; 280 µM in the experiment on COLO 205 colon; > 63.7 µM and 252 µM in the experiment with HOP-92 NSCLC; 372 µM with HT29 colon; 555 µM with MOLT-4 leukemia; 304 µM in the experiment with OVCAR-4 ovarian. In addition, the TGI with RPMI-8226 leukemia was > 67.3 µM and 446 µM; in the experiment with SF-295 CNS, 843 µM; in the experiment with SN12C renal it was 293 µM. Also, the GI50 was 103 µM in the experiment on HOP-92 NSCLC, 197 µM with MOLT-4 leukemia and 91.6 µM in the experiment on RPMI-8226 leukemia.
`Cc1ccc(S(=O)(=O)N2CCN(C=S)CC2)cc1`: the TGI with 786-0 renal, in the experiment on COLO 205 colon, in the experiment with HT29 colon, in the experiment on MOLT-4 leukemia and in the experiment on SN12C renal was greater than 100 µM in each case.
Consider `O=C(/C=C/c1ccccc1O)c1ccc([N+](=O)[O-])cc1`, for which the TGI in the experiment with 786-0 renal is 32.6 µM; in the experiment on COLO 205 colon, 27.4 µM; in the experiment with HOP-92 NSCLC, greater than 100 µM; with HT29 colon, 36.7 µM; in the experiment on MOLT-4 leukemia it was 76.6 µM; in the experiment on OVCAR-4 ovarian it was 25.1 µM. Moreover, the TGI was 56.5 µM in the experiment with SF-295 CNS and 30.8 µM with SN12C renal.
For `OCC[N+]12CCCN1CCC2`, the TGI in the experiment with 786-0 renal, with COLO 205 colon, in the experiment with HOP-92 NSCLC, in the experiment on HT29 colon, in the experiment on MOLT-4 leukemia and in the experiment with OVCAR-4 ovarian was greater than 100 µM in each case. Also, the TGI with SF-295 CNS and with SN12C renal was greater than 100 µM in each case.
For the compound `COc1ccc(C(=O)c2c3cc(OC)c(OC)c(OC)c3cc[n+]2C)cc1`, the TGI is 33.5 µM in the experiment on 786-0 renal; greater than 100 µM in the experiment on HT29 colon; greater than 100 µM with MOLT-4 leukemia; 49 µM with RPMI-8226 leukemia; greater than 100 µM in the experiment with SN12C renal.
Turning to `COc1cc(CC2c3cc(OC)c(OC)cc3CCN2C)ccc1O` (configuration not stated), the TGI with 786-0 renal, with HT29 colon, in the experiment on MOLT-4 leukemia, in the experiment on OVCAR-4 ovarian, in the experiment with RPMI-8226 leukemia and with SF-295 CNS was greater than 100 µM each time. This compound yielded a TGI in the experiment on SN12C renal greater than 100 µM.
On to `Cc1[nH]c2ccccc2c1CC/C(=N\Nc1ccccc1)c1ccccc1`, for which the TGI in the experiment on 786-0 renal, with HT29 colon, with MOLT-4 leukemia, in the experiment with OVCAR-4 ovarian, in the experiment with RPMI-8226 leukemia and in the experiment on SF-295 CNS was greater than 100 µM in each case.
Turning to `O=C(Cc1nc2ccccc2o1)C(=O)Nc1cccc(Cl)c1`, the TGI in the experiment with 786-0 renal, in the experiment with COLO 205 colon, in the experiment on HOP-92 NSCLC, with HT29 colon, in the experiment with MOLT-4 leukemia and in the experiment on OVCAR-4 ovarian was greater than 100 µM throughout. Moreover, the TGI with SF-295 CNS and in the experiment with SN12C renal was greater than 100 µM each time.
With `O=C1C(=C([O-])c2ccccc2)C(=O)c2ccccc21.O=C1C(=C([O-])c2ccccc2)C(=O)c2ccccc21.[Mn+2]`, the GI50 with 786-0 renal was greater than 100 µM; in the experiment with HT29 colon, 43.2 µM; in the experiment on MOLT-4 leukemia, greater than 100 µM; in the experiment on OVCAR-4 ovarian, greater than 100 µM; with RPMI-8226 leukemia, greater than 100 µM; with SF-295 CNS it was 74.6 µM. Moreover, in the experiment on SN12C renal, the GI50 was 91.6 µM. Also, the TGI in the experiment with 786-0 renal, in the experiment with HT29 colon, in the experiment with MOLT-4 leukemia, with OVCAR-4 ovarian, with RPMI-8226 leukemia and in the experiment on SF-295 CNS was greater than 100 µM in each case. In the experiment on SN12C renal, this compound yielded a TGI greater than 100 µM.
